Assay [1] has as its system breast and endometrial tissues. Description: Antiestrogens tested for SERM function and estrogenic activity in breast and endometrium. Conditions: for Estrogenic activity in breast and endometrial tissues: physiological or pharmacological concentrations. The text has this: As used herein, a selective estrogen receptor modulator (SERM) is a compound that either directly or through its active metabolite functions as an estrogen receptor antagonist (“antiestrogen”) in breast tissue, yet provides estrogenic or estrogen-like effect on bone tissue and on serum cholesterol levels (i.e. by reducing serum cholesterol). Non-steroidal compounds that function as estrogen receptor antagonists in vitro or in human or rat breast tissue (especially if the compound acts as an antiestrogen on human breast cancer cells) is likely to function as a SERM. Conversely, steroidal antiestrogens tend not to function as SERMs because they tend not to display any beneficial effect on serum cholesterol. […] These SERMs may be called “pure SERMs”. […] This second series of SERMs may be called “mixed SERMs”. The unwanted estrogenic activities of these “mixed SERMs”, may be inhibited by addition of pure “SERMs” as shown in FIGS. 6 and 7 in in vitro tests and in FIG. 9 in an in vivo test of breast cancer.

In assay [2] the test system is ZR-75-1 breast tumor xenografts. Description: Growth of human ZR-75-1 breast tumor xenografts in OVX nude mice supplemented with estrone (DHEA, EM-800; Example 1). The conditions noted are these: OVX + E1 (0.5 μg) alone, 9.5 months.
The subject of the next assay is ZR-75-1 breast tumors. As to the kind of experiment: Growth and response category of human ZR-75-1 breast tumors in OVX nude mice, 7 antiestrogens, 161 days (Example 8). The class given is in vivo. The conditions noted are these: 161 days. The protocol:
The mice (5 per cage) were housed in vinyl cages equipped with air filter lids, which were kept in laminar airflow hoods and maintained under pathogen-limiting conditions. The photoperiod was 12 hours of light and 12 hours of darkness (lights on at 07:15). Cages, bedding and food (Agway Pro-Lab R-M-H Diet #4018) were autoclaved before use. Water was autoclaved and provided ad libitum. Bilateral ovariectomy was performed under isoflurane-induced anesthesia. […] Randomization and treatments were started one week later. […] The 17 groups included two control groups (OVX and OVX+Estrone), seven groups supplemented with an estrone implant and treated with an antiestrogen and eight other groups that received an antiestrogen alone. The estrone implants were then removed from the animals in the ovariectomized control group (OVX) and in groups that were to receive the antiestrogen alone. […] Tamoxifen was purchased from […], Israel) while toremifene citrate was purchased from Orion (Espoo, Finland). […] Animals in both control groups received 0.2 ml of the vehicle alone. The antiestrogen suspensions at the appropriate concentration were prepared each month, stored at 4° C. and used under constant agitation. Powder stock were hermetically stored at 4° C. […] Tumor response was assessed at the end of the study or at death of each animal, if it occurred during the course of the experiment. In this case, only data of mice that survived for at least half of the study (84 days) were used in the tumor response analysis.

The mark [3] stands for this setting: 200 μg daily, absence of estrone.

The structures appear in SMILES notation.

`CCC(=C(c1ccc(O)cc1)c1ccc(OCCN(C)C)cc1)c1ccccc1` [4-hydroxy-Tamoxifen, 1-(4-dimethylaminoethoxyphenyl)-1-(4-hydroxyphenyl)-2-phenyl-but-1-ene]: in assay [1], the “Function as SERM” value was “found to function as SERMs”; the “Estrogenic activity in breast and endometrial tissues” value (from here on “Estrogenic activity”) is reported as “have some estrogenic activities”.
As for `C[C@]12CC[C@@H]3c4ccc(O)cc4CC[C@H]3[C@@H]1CCC2=O` [E1, Estrone, reference compound], in assay [2], the “Category of response: Complete” value is 0 (0) Number and (%); the “Category of response: Partial” value was 0 (0) Number and (%); the “Category of response: Progression” value was 14 (87.5) Number and (%). For the same compound, in assay [2] (listed as estrone), the “Category of response: Complete” value is 0 Number and (%).
In the case of `C[C@]12CC[C@@H]3c4ccc(O)cc4C[C@@H](CCCCCCCCC[S+]([O-])CCCC(F)(F)C(F)(F)F)[C@H]3[C@@H]1CC[C@@H]2O` (stereo partly drawn) [ICI 182,780], in assay [1], the “Function as SERM” value was “not to function as a-SERMs”.
Turning to `Cl.Oc1ccc(-c2sc3cc(O)ccc3c2Oc2ccc(OCCN3CCCCC3)cc2)cc1` [LY 335 563, 6-hydroxy-3-[4-[2-(1-piperidinyl)ethoxy]phenoxyl]-2-(4-hydroxyphenyl) benzo[b]thiopene hydrochloride], in assay [1], the “Function as SERM” value is listed as “found to function as SERMs”; the “Estrogenic activity” value is given as “have some estrogenic activities”.
In the same order, the values of `CN(C)CCOc1ccc(/C(=C(/CCCl)c2ccccc2)c2ccc(O)cc2)cc1` [OH-Toremifene, (Z)-(2)-2-[4-(4-chloro-1-(4-hydroxyphenyl)-2-phenyl-1-butenyl)phenoxy]-N,N-dimethyletha namine] are “found to function as SERMs” and “have some estrogenic activities”.
With `Cc1c(-c2ccc(O)cc2)n(Cc2ccc(OCCN3CCCCCC3)cc2)c2ccc(O)cc12` [TSE 424], in assay [1], the “Function as SERM” value is “found to function as SERMs”.
As for `CC/C(=C(\c1ccccc1)c1ccc(OCCN(C)C)cc1)c1ccccc1` [Tamoxifen, (Z)-2-[4-(1,2-diphenyl-1-butenyl)phenoxy]-N,N-dimethylethanamine], in the assay with ZR-75-1 breast tumors (50 μg daily + estrone), the Progressing tumors worked out at 65%. The Progressing tumors in the assay on ZR-75-1 breast tumors (setting [3]) is on record as 62%. In addition, in assay [1], the “Function as SERM” value is reported as “found to function as SERMs”; the “Estrogenic activity” value is “have some estrogenic activities”.
As for `CN(C)CCOc1ccc(/C(=C(/CCCl)c2ccccc2)c2ccccc2)cc1` [Toremifene, (Z)-2-[4-(4-Chloro-1,2-diphenyl-1-butenyl)phenoxy]-N,N-dimethylethanamine], the Progressing tumors with ZR-75-1 breast tumors (50 μg daily + estrone) was 89%. In the assay on ZR-75-1 breast tumors (setting [3]), the “Increase of average tumor size over baseline” value is given as 86% and the Progressing tumors was determined as 21%. In assay [1], the “Function as SERM” value is listed as “found to function as SERMs”; the “Estrogenic activity” value was “have some estrogenic activities”.

(Values after US20030040510A1, “Selective estrogen receptor modulators in combination with estrogens” (Endorecherche, Inc., priority 2000, published 2003).)
